Data: article PMC9356275, “A quantitative high-throughput screen identifies compounds that lower expression of the SCA2-and ALS-associated gene ATXN2” (The Journal of Biological Chemistry, 2022)
Structures can show the parent of a compound that is named as a salt. Where two headings read alike, the source gives them in different places.

Legend:
ATXN2-luc [1] = experiment: MSSR hit retest: ATXN2-luc luciferase assay, average of H2 and S1 cells (1 and 10 uM); assay type: cell-based, human; conditions: Homo sapiens; for activity at 1 µM: read-out: H2&S1 ave luc 1uM; for activity at 10 µM: head line r3 10uM
Text: (§1) Supplement mmc2.xlsx, sheet "43 annotated compounds"

ATXN2-luc [2] = experiment: MSSR pilot screen: ATXN2-luc luciferase assay (Bright-Glo) in H2 cells, single 10 μM dose; assay type: cell-based, human; conditions: for SD from mean (ATXN2-luc, Z-score): H2 cells, single dose (title: 10 μM compound), overnight; for ¦Score/1SD¦: absolute score divided by 1SD (0.891 or 0.9)
ATXN2-luc [3] = experiment: Secondary assays: ATXN2-luc in S2 and H2 cells, 12 doses, Bright-Glo; assay type: cell-based, human; conditions: for IC50: Homo sapiens; for min ATXN2-luc (%): minimum ATXN2-luc signal over 12 doses, H2 and S2 cells
H2 and S1 cells = experiment: Paired MTT viability assay, average of H2 and S1 cells (1 and 10 uM); assay type: cell-based, human; conditions: Homo sapiens
Text: as §1

in vitro = conditions: human
Protocol: The values for H2 and S2 were used as replicates to calculate IC50s and to assess cell viability.
Compounds were plated at 2× concentrations in phenol red–free DMEM in 25 μl in 384-well plates with each compound dose plated in triplicate. An equal volume of S2, H2, or SC cells (24,000 cells/well) suspended in phenol red–free DMEM with 10% fetal bovine serum and 1× penicillin/streptomycin were added. Cells were grown 24 h and then assayed first by using the CellTiter-Fluor reagent (20 μl) followed by the addition of Bright-Glo (65 μl) luciferase assay, using a multimode plate reader (Beckman; DT880). Values were reported as the mean ± SD with n = 3. IC50s were determined by the Hill coefficient method using an online tool (https://www.aatbio.com/tools/ic50-calculator).

CMV-luc [4] = experiment: Secondary assays: CMV-luc in SC cells, Bright-Glo; assay type: cell-based, human; conditions: minimum CMV-luc signal in SC cells over 12 doses; summary data
ATXN2-luc [5] = experiment: NCATS qHTS (LOPAC pilot, primary and confirmation): ATXN2-luc in S2 cells, 1536-well, Steady-Glo; assay type: cell-based, human; conditions: for AC50: LOPAC library screening optimization
Outline: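 […] S2 cells expressing ATXN2-luc in phenol red–free DMEM screened in 1536-well qHTS format. Luciferase read by Steady-Glo luminescence after 5 min at room temperature (2 s exposure), multiplexed with CellTiter-Fluor viability.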

ATXN2-luc [6] = experiment: MSSR hit retest / multiconcentration testing: ATXN2-luc luciferase assay in H2 cells (1 and 10 μM); assay type: cell-based, human; conditions: 1 uM compound; luciferase, average of H2 and S1 cells expressing ATXN2-luc; rescreen
CMV-luc [7] = experiment: MSSR counterscreen: CMV-luc expression in HC cells; assay type: cell-based, human; conditions: for CMV-luc, averages as percent of no compound control: HC cells, n=4 wells
endogenous ATXN2 = experiment: Endogenous ATXN2 mRNA by qPCR in HEK-293 cells; assay type: cell-based; conditions: Homo sapiens, HEK293, 48 h, read-out: IC50, endogenous ATXN2 by qPCR
H2 cells = conditions: 1 nM
ATXN2-luc [8] = experiment: ATXN2-luc luciferase dose-response in H2 cells, 48 h; assay type: cell-based; conditions: Homo sapiens, read-out: IC50, ATXN2-luc expression by luciferase assay
[9] = 1 uM compound, average of H2 and S1 cells
[10] = average of H2 and S1 cells, read-out: H2&S1 ave luc 10uM
[11] = pilot screen at 10 µM compound, H2 cells expressing ATXN2-luc
[12] = 1 uM compound, read-out: H2&S1 ave MTT 1uM
[13] = 10 uM compound, read-out: H2&S1 ave MTT 10uM

C[C@@H]1O[C@@H](O[C@H]2C[C@@H](O)[C@]3(CO)[C@H]4[C@H](O)C[C@]5(C)[C@@H](C6=CC(=O)OC6)CC[C@]5(O)[C@@H]4CC[C@]3(O)C2)[C@H](O)[C@H](O)[C@H]1O [OUABAIN]
activity at 1 µM (ATXN2-luc [1]; [9]): 14% | activity at 10 µM (ATXN2-luc [1]; [10]): 12% | SD from mean (ATXN2-luc, Z-score) (ATXN2-luc [2]): -3.832 SD | SD from mean (pilot screen) (ATXN2-luc [2]; pilot screen): -3.832 SD | SD from mean (pilot screen) (ATXN2-luc [2]; [11]): -3.832 | ¦Score/1SD¦ (ATXN2-luc [2]; pilot screen): 4.26 | IC50 (ATXN2-luc [3]; ATXN2-luc luciferase assays in H2 and S2 cells, 12 doses plus a zero dose, summary data, read-out: Mean IC50): 0.122 µM | min ATXN2-luc (%) (ATXN2-luc [3]; summary data): 6.982% | viability at 1 µM (H2 and S1 cells; [12]): 51.8% | viability at 10 µM (H2 and S1 cells; [13]): 60.4% | viability at 24 h (in vitro): 74.3% | min SC luc (%) (CMV-luc [4]): 122.219% | AC50 (ATXN2-luc [5]; Homo sapiens, logarithm of AC50 (negative values), read-out: Log AC50 (converted)): < 0.09 µM | AC50 (ATXN2-luc [5]; Homo sapiens, read-out: AC50): < 0.09 µM | Curve Class (ATXN2-luc [5]; LOPAC library (1,280 compounds) screening optimization, signed sub-classes (-1.1, -2.2, -3 ...)): -1.1 | AC50 (ATXN2-luc [5]; read-out: AC50): 0.112 µM

CN1CCN(CCCN2c3ccccc3Sc3ccc(C(F)(F)F)cc32)CC1 [TRIFLUOPERAZINE HYDROCHLORIDE]
activity at 1 µM (ATXN2-luc [1]; [9]): 105% | activity at 10 µM (ATXN2-luc [1]; [10]): 1.54% | H2&S1 ave luc 1uM (ATXN2-luc [6]): 105 | SD from mean (ATXN2-luc, Z-score) (ATXN2-luc [2]): -5.856 SD | SD from mean (pilot screen) (ATXN2-luc [2]; pilot screen): -5.856 SD | SD from mean (pilot screen) (ATXN2-luc [2]; [11]): -5.856 | ¦Score/1SD¦ (ATXN2-luc [2]; pilot screen): 6.51 | viability at 1 µM (H2 and S1 cells; [12]): 88.1% | viability at 10 µM (H2 and S1 cells; [13]): 8.76% | CMV-luc, averages as percent of no compound control (CMV-luc [7]; 0.1 uM compound): 94.6408% of no compound control | CMV-luc, averages as percent of no compound control (CMV-luc [7]; 1 uM compound): 100.563% of no compound control | CMV-luc, averages as percent of no compound control (CMV-luc [7]; 10 uM compound): 98.5115% of no compound control | Comment on CMV-luc inhibition (CMV-luc [7]; result in words): No CMV-luc inhibition at 10 uM | ATXN2 luc activity (call) (CMV-luc [7]; summary call for the 12 pilot compounds tested on CMV-luc): Unclear

C[C@@H]1O[C@@H](O[C@@H]2C=C3CC[C@@H]4[C@H](CC[C@]5(C)[C@@H](c6ccc(=O)oc6)CC[C@]45O)[C@@]3(C)CC2)[C@H](O)[C@H](O)[C@H]1O [Proscillaridin A]
activity at 1 µM (ATXN2-luc [1]): 54% | activity (ATXN2-luc [1]; read-out: H2&S1 ave luc 10uM): 22% | SD from mean (ATXN2-luc, Z-score) (ATXN2-luc [2]): -7.684 SD | SD from mean (pilot screen) (ATXN2-luc [2]; pilot screen): -7.684 SD | SD from mean (pilot screen) (ATXN2-luc [2]; [11]): -7.684 | ¦Score/1SD¦ (ATXN2-luc [2]; pilot screen): 8.62 | IC50 (endogenous ATXN2): 0.677 µM | IC50 (ATXN2-luc [3]; 24 h, read-out: IC50 for lowering ATXN2-luc): 0.017 µM | min ATXN2-luc (%) (ATXN2-luc [3]; summary data): 7.9859% | Cellular viability (MTT) (H2 cells): minimal effect on cellular viability | IC50 (ATXN2-luc [8]): 0.052 µM | viability at 1 µM (H2 and S1 cells; read-out: H2&S1 ave MTT 1uM, 1 uM compound): 47.8% | viability at 10 µM (H2 and S1 cells; read-out: H2&S1 ave MTT 10uM, 10 uM compound): 45% | viability at 24 h (in vitro): 74.2% | min SC luc (%) (CMV-luc [4]): 121.976%
